# Data: patent EP4548971A1, “1,4-BENZOTHIAZEPINES AND RELATED COMPOUNDS WITH CYCLOPROPANOL GROUPS AS MULTI-TARGETED DRUGS” (Georg-August-Universität Göttingen Stiftung Öffentlichen …, priority 2023, dated 2025)
# “Also recorded” adds a separate entry of the source.
# Target: T1, SERCA2a (Mus musculus, UniProt O55143)
# T1 construct: host or cells: HL-1 cardiac cells
# Assay: Caffeine-induced Ca2+ release assay on HL-1 cells
# Type: cell-based
# Design: key to SERCA2a HL-1 effect class: +++: a strong effect, comparable to or greater than that of a known compounds at a given concentration (25 µM in RyR2 R-CEPIA1er assay, 10 µM in caffeine assay and on microsomal membrane vesicles); ++: moderate effect; +: observable effect; -: no effect
# Settings: for SERCA2a HL-1 effect class: 10 µM in caffeine assay; for effect in caffeine-induced Ca^2+ release assay, in words: HL-1 cells incubated 2 h with compound; for effect in caffeine-induced Ca^2+ release assay, in words / EC50: 10 mM caffeine; for EC50: caffeine-induced Ca2+ release, range after the semicolon is not explained
# Method: HL-1 cardiac cells (SCC065, Merck KGaA, Darmstadt, Germany) were cultivated in Claycomb's Medium (51800C, Merck KGaA, Darmstadt, Germany), supplemented with Glutamax, 10% fetal bovine serum, 0.9% Penicillin/Streptomycin and 0.1 mM Noradrenaline (Merck KGaA, Darmstadt, Germany) on fibronectin/gelatin (Merck KGaA, Darmstadt, Germany) coated culture bottles or plates two days before plating.
# HL-1 cardiac cells (50000 per well) were cultivated for 24 h in black-walled, clear-bottom 96-well micro-plates (Corning, Amsterdam, The Netherlands) covered with fibronectin/gelatin (Merck KGaA, Darmstadt, Germany) in a humidified incubator at 37 °C and 5% CO2.
# Changes in Ca^2+ concentration were measured on a multiwell plate reader TECAN Spark 20M using FLIPR 6 Calcium Assay Kit from Molecular Devices (Molecular Devices LLC, München, Germany) at 37 °C. The 1000 × stock solutions of the test compounds were prepared in DMSO. 100 µl solution of test compound in Tyrode's solution containing FLIPR Calcium 6 dye was incubated for 2 hours at 37°C and 5% COz in a humidified incubator. The time courses were recorded in each well. Fluorescence was evoked at 485 nm excitation wavelength and read out in a bottom-read mode at 525 nm. Data were recorded every 2 s, exposure - 20 flashes, excitation bandwidth - 10 nm, emission bandwidth - 15 nm. To initiate Ca^2+ influx, 25 µl of 50 mM caffeine solution in Tyrode's solution containing 2 mM CaCl2 was injected in each well (speed 100 µl/s) at 10 s time point, resulting in 10 mM final concentration in the well. The differences between the caffeine induced peak minus basal fluorescence, ΔFCaff, were taken for the analysis. The Tyrode's solution + 0.1 v/v% DMSO was used as a control. The dose response curves were calculated using the software package GraphPad Prism version 8.3.1. All data are presented as mean ± S.D. from 8 independent experiments. Y=Bottom + (Top-Bottom)/(1+10^((LogEC50-X)*HillSlope)) was used where HillSlope describes the steepness of the curve, Top and Bottom are plateaus in the units of the Y axis.
# The SERCA2a activity of the compounds was confirmed in two orthogonal biochemical assays: caffeine-induced Ca^2+ release assay and nicotinamide adenine dinucleotide (NADH) assay on microsomal membrane vesicles from mouse heart ventricles (mouse SER) and HEK-293T cells (HEK-293 ER). The effect of caffeine-induced Ca^2+ release in HL-1 cells, immortalized mouse cardiomyocytes, treated with the cytosolic Ca^2+ indicator FLIPR Calcium 6 (Molecular Devices) was investigated.
# When caffeine binds to the RyR channel, it interacts with specific amino acids of the protein, and this interaction causes conformational changes in the protein's structure [A. des Georges, O. B. Clarke, R. Zalk, Q. Yuan, K. J. Condon, R. A. Grassucci, W. A. Hendrickson, A. R. Marks, J. Frank, Structural Basis for Gating and Activation of RyR1. Cell 2016, 167, 145 - 157.e17]. This opens the RyR2 channel pore, enabling the mass release of calcium ions from the SER Ca^2+ store.
# T1 sequence (O55143 1-998 isoform O55143-2): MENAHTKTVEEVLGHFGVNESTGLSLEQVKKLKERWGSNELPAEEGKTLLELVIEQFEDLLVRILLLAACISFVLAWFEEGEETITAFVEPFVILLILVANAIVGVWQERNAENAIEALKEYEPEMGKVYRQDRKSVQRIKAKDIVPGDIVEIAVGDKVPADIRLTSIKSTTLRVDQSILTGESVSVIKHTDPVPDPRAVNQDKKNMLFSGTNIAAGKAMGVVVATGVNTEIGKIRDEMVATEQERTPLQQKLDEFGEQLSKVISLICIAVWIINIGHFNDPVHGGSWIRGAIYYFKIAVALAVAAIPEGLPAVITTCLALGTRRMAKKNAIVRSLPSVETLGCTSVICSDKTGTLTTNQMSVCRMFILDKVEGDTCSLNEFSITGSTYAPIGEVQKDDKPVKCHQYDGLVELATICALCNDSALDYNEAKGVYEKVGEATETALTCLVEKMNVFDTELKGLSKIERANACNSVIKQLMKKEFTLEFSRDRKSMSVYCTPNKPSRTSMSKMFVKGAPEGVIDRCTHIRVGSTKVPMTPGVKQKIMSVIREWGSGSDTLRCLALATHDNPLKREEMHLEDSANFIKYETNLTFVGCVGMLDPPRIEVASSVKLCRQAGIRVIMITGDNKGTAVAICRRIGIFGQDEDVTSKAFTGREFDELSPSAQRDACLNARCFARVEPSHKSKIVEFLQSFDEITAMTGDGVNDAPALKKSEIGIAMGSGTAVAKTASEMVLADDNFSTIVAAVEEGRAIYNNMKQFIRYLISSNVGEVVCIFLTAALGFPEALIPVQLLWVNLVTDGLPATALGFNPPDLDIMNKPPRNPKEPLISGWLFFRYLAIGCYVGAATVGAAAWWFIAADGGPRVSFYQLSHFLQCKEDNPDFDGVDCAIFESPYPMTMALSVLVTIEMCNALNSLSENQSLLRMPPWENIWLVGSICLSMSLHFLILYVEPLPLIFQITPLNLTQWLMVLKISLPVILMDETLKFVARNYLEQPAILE
Compound,SERCA2a HL-1 effect class,"effect in caffeine-induced Ca^2+ release assay, in words",EC50
"COc1ccc2c(c1)CN(Cc1ccc(C(=O)O)cc1)CCS2 [ARM210, reference compound]",+,clear concentration-dependent effect,
"COc1ccc2c(c1)CN(CCCCNCCCCC1(O)CC1)CCS2 [Compound 13a, 1-(4-((4-(7-Methoxy-2,3-dihydrobenzo[1,4-f]-thiazepin-4(5H)-yl)butyl)amino)butyl)cyclopropan-1-ol]",+,most potent,2.2 µM
"COc1ccc(OCCCNCCCCC2(O)CC2)cc1 [Compound 13b, 1-(4-((3-(4-methoxyphenoxy)propyl)amino)butyl)cyclopropan-1-ol]",++,,8.6 µM
"COc1ccc(SCCCNCCCCC2(O)CC2)cc1 [Compound 13c, 1-(4-((3-((4-Methoxyphenyl)thio)propyl)amino)butyl)cyclopropan-1-ol]",++,,7.6 µM
"COc1ccc2c(c1)CN(CCCCC1(O)CC1)CCS2 [Compound 13d, 1-(4-(7-methoxy-2,3-dihydrobenzo[1,4-f]thiazepin-4(5H)-yl)butyl)cyclopropan-1-ol]",+,least efficacious; also recorded: no saturation effect at concentrations up to 50 µM; also recorded: slight,
"COc1ccc2c(c1)CN(CCCCN(CCCCC1(O)CC1)CCCCC1(O)CC1)CCS2 [Compound 14a, 1,1'-(((4-(7-Methoxy-2,3-dihydrobenzo[1,4-f]thiazepin-4(5H)-yl)butyl)azanediyl)bis(butane-4,1-diyl))bis(cyclopropan-1-ol)]",++,,9.2 µM
"COc1ccc(SCCCN(CCCCC2(O)CC2)CCCCC2(O)CC2)cc1 [Compound 14c, 1,1'-(((3-((4-Methoxyphenyl)thio)propyl)azanediyl)bis(butane-4,1-diyl))bis(cyclopropan-1-ol)]",+++,most efficacious,10.9 µM
"COc1ccc2c(c1)CN(C(=O)C(=O)O)CCS2 [Compound S36, reference compound]",-,no concentration dependent effect,
